What was measured:
[1] = biological target: Met (phospho-Met, HGF-stimulated PC-3 prostate cancer cells) (Homo sapiens (Human), UniProt P08581); test: Met autophosphorylation ELISA in PC-3 cells (Example F); format: cell-based; conditions: cellular activity; Met autophosphorylation ELISA in PC-3 cells; read-out: c-Met IC50
Method in brief: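 PC-3 cells, serum-starved 3 h, were treated with compounds (8-point dose curve, 0.3% DMSO final) for 1 h, then stimulated with 100 ng/mL recombinant human HGF for 10 min. Lysate phospho-Met (panTyr) was quantified by sandwich ELISA; IC50 from 4-parameter logistic fit.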

[2] = biological target: KDR (phospho-KDR, VEGF165-stimulated HUVEC cells) (Homo sapiens (Human), UniProt P35968); test: KDR autophosphorylation ELISA in HUVEC cells (Example G); format: cell-based; conditions: cellular activity; KDR autophosphorylation ELISA in HUVEC cells
Method in brief: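 IC50 values derive from nonlinear curve fitting of phospho-KDR levels measured by ELISA and interpolated from a phosphoprotein standard. Beforehand, starved HUVECs received compound (0.3% DMSO vehicle) for one hour and were activated with VEGF165 at 100 ng/mL for 5 min.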

[3] = biological target: Human MER (residues 528-999) (Homo sapiens (Human), UniProt Q12866); test: Human Mer kinase assay, HTRF KinEase (Example C-2); format: biochemical; conditions: protocol of Example C-2 (other compounds)
Method in brief: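 Recombinant MER 528-999 (1 ng/well) in buffer with 5 mM MgCl2 and 1 mM DTT was reacted with biotinylated peptide and ATP at Km (40 μM) for 60 min at room temperature. EDTA stop with SA-XL665 and Eu3+ TK antibody, then 665/620 nm HTRF read; IC50 from 4-parameter fit.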

[4] = biological target: Human MET (residues 956-1390) (Homo sapiens (Human), UniProt P08581); test: Human Met kinase assay, HTRF KinEase (Example D-2); format: biochemical; conditions: protocol of Example D-2 (other compounds); read-out: c-Met IC50
Method in brief: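 MET kinase domain (956-1390), 0.1 ng/well, in buffer with 5 mM MgCl2, 1 mM DTT and 1 mM MnCl2, phosphorylated a biotinylated peptide at ATP Km for 40 min at RT; 10 concentrations, 3% DMSO final. EDTA-stopped HTRF read after 60 min; IC50 from a 4-parameter logistic fit.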

Met (phospho-Met, HGF-stimulated PC-3 prostate cancer cells), sequence (P08581 25-1390): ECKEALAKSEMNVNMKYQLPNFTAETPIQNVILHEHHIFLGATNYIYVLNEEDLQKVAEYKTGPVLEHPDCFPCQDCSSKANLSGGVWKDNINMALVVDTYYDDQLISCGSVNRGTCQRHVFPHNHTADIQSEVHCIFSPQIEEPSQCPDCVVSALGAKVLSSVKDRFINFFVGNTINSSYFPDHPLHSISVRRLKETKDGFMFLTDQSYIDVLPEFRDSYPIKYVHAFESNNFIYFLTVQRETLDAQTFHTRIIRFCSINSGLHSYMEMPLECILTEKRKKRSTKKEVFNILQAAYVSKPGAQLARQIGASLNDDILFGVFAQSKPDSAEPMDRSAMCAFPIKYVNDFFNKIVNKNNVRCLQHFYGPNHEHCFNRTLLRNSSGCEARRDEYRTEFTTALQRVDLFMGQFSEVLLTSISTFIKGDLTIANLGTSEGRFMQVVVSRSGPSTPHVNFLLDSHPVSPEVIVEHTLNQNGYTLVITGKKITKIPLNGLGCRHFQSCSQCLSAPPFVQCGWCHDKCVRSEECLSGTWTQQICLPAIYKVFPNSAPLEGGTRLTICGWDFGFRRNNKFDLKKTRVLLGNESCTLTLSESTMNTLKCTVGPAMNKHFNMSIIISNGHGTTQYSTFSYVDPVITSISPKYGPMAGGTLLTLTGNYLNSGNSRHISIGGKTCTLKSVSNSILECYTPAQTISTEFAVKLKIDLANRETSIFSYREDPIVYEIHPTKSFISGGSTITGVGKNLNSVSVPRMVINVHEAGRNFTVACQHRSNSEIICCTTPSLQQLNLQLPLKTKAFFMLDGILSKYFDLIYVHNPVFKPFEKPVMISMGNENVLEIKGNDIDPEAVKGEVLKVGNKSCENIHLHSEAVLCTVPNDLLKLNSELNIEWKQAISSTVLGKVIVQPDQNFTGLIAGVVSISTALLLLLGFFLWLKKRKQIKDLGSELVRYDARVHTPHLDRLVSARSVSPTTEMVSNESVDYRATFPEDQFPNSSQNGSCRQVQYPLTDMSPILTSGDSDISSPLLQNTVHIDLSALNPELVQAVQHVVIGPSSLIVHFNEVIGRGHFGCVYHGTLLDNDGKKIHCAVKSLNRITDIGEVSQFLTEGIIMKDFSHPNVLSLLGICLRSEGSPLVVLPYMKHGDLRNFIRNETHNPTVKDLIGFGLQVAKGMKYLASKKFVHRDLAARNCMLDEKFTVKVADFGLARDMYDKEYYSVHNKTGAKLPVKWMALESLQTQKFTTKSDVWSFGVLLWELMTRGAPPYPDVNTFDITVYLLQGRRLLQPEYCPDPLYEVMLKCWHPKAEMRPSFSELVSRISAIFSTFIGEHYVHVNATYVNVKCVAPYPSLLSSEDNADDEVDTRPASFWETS
Human MET (residues 956-1390), sequence (P08581 956-1390): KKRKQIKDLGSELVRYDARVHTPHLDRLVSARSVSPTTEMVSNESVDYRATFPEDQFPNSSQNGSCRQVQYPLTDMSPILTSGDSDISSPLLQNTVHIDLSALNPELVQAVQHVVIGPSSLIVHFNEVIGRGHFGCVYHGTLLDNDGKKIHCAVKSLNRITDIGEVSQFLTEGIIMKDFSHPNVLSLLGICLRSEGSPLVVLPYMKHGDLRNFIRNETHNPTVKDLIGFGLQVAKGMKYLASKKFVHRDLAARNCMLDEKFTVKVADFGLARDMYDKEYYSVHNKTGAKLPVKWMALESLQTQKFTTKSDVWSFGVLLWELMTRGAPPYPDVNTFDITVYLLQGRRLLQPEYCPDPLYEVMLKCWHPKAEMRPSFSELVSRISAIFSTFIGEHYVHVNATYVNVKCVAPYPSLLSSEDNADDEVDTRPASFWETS
Human MER (residues 528-999), sequence (Q12866 528-999): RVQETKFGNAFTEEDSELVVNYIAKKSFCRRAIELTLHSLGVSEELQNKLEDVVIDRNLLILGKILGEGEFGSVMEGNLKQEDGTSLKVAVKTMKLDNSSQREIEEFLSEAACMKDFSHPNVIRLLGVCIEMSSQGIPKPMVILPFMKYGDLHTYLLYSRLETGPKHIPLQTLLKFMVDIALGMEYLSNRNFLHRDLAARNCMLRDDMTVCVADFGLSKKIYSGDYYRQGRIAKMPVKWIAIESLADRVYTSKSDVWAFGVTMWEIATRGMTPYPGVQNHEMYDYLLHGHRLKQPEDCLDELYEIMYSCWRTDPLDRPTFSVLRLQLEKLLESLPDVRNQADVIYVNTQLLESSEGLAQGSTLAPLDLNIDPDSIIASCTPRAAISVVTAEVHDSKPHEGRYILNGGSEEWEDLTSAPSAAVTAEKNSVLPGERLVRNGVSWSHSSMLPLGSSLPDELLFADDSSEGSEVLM
KDR (phospho-KDR, VEGF165-stimulated HUVEC cells), sequence (P35968 20-1356): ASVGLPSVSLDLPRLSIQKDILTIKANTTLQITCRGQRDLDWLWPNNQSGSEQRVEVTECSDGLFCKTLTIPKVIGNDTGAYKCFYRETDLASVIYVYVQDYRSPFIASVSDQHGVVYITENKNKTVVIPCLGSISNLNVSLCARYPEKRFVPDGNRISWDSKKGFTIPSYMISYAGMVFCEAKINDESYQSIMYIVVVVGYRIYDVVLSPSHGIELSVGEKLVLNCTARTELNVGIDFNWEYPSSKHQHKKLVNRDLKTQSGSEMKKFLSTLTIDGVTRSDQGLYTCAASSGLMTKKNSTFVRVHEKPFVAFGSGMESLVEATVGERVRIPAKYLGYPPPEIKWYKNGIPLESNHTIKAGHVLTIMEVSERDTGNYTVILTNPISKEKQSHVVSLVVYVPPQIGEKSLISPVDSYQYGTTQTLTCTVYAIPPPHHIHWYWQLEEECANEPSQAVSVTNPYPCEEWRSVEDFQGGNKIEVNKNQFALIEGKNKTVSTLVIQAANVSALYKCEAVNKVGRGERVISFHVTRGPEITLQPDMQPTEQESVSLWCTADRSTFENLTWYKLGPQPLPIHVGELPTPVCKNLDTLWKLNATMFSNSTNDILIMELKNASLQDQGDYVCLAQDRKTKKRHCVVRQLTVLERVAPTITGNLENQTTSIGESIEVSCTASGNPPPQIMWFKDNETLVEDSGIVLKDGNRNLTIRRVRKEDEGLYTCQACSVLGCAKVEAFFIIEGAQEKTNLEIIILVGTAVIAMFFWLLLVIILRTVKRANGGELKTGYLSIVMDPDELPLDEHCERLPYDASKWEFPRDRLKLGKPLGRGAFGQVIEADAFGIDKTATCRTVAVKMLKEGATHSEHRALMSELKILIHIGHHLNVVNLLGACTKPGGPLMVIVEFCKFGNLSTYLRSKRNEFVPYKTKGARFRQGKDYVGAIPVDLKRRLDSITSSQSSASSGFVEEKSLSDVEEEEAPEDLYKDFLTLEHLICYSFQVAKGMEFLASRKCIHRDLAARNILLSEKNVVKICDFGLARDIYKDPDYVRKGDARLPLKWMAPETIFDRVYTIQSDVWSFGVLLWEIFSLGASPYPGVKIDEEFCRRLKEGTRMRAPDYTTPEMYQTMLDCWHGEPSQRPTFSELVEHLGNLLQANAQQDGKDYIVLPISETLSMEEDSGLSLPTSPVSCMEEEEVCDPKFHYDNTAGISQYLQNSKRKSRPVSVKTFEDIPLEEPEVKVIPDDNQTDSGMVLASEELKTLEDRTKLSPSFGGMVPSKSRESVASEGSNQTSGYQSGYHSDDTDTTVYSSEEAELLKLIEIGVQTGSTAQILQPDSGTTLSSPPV

SMILES | IC50 [1] [nM] | IC50 [2] [nM] | IC50 [3] [nM] | IC50 [4] [nM]
COc1cc2nccc(Oc3ccc(NC(=O)c4cn(C(C)C)c(C)c(-c5ccc(F)cc5)c4=O)cc3F)c2nc1OC [Compound 21, N-[4-[(6,7-Dimethoxy-1,5-naphthyridin-4-yl)oxy]-3-fluorophenyl]-5-(4-fluorophenyl)-6-methyl-4-oxo-1-propan-2-ylpyridine-3-carboxamide] | < 100 | < 100 |  | 
COc1cc2nccc(Oc3ccc(NC(=O)c4cn(C(C)C)c(C)c(-c5ccc(F)cc5)c4=O)cc3F)c2cc1OC [Compound 22, N-[4-(6,7-Dimethoxyquinolin-4-yl)oxy-3-fluorophenyl]-5-(4-fluorophenyl)-6-methyl-4-oxo-1-propan-2-ylpyridine-3-carboxamide] | < 100 | 100 to 300 |  | 
COc1cc2nccc(Oc3ccc(NC(=O)c4cn(C(C)C)c(C)c(-c5ccc(Cl)c(Cl)c5)c4=O)cc3F)c2cc1OC [Compound 23, 5-(3,4-Dichlorophenyl)-N-[4-(6,7-dimethoxyquinolin-4-yl)oxy-3-fluorophenyl]-6-methyl-4-oxo-1-propan-2-ylpyridine-3-carboxamide] | 100 to 300 | > 300 |  | 
COc1cc2nccc(Oc3ccc(NC(=O)c4cn(C(C)C)c(C)c(-c5ccc(F)c(Cl)c5)c4=O)cc3F)c2nc1OC [Compound 24, 5-(3-Chloro-4-fluorophenyl)-N-[4-[(6,7-dimethoxy-1,5-naphthyridin-4-yl)oxy]-3-fluorophenyl]-6-methyl-4-oxo-1-propan-2-ylpyridine-3-carboxamide] | < 100 | 100 to 300 |  | 
COc1cc2nccc(Oc3ccc(NC(=O)c4cn(C(C)C)c(C)c(-c5ccc(Cl)c(Cl)c5)c4=O)cc3F)c2nc1OC [Compound 25, 5-(3,4-Dichlorophenyl)-N-[4-[(6,7-dimethoxy-1,5-naphthyridin-4-yl)oxy]-3-fluorophenyl]-6-methyl-4-oxo-1-propan-2-ylpyridine-3-carboxamide] | < 100 | 100 to 300 |  | 
COc1cc2nccc(Oc3ccc(NC(=O)c4cn(C5CCCC5)c(C)c(-c5ccc(F)cc5)c4=O)cc3F)c2nc1OC [Compound 26] | < 100 | < 100 |  | 
COc1cc2nccc(Oc3ccc(NC(=O)c4cn(C5CCCC5)c(C)c(-c5ccc(F)c(Cl)c5)c4=O)cc3F)c2nc1OC [Compound 27, 5-(3-Chloro-4-fluorophenyl)-1-cyclopentyl-N-[4-[(6,7-dimethoxy-1,5-naphthyridin-4-yl)oxy]-3-fluorophenyl]-6-methyl-4-oxopyridine-3-carboxamide] | < 100 | < 100 |  | 
COc1cc2nccc(Oc3ccc(NC(=O)c4cn(C5CC5)cc(-c5ccc(F)cc5)c4=O)cc3F)c2nc1OC [Compound 41, 1-Cyclopropyl-N-[4-[(6,7-dimethoxy-1,5-naphthyridin-4-yl)oxy]-3-fluorophenyl]-5-(4-fluorophenyl)-4-oxopyridine-3-carboxamide] | < 100 | 100 to 300 |  | 
COc1cc2nccc(Oc3ccc(NC(=O)c4cncc(-c5ccc(F)cc5)c4O)cc3F)c2nc1OC [Compound 42, N-[4-[(6,7-Dimethoxy-1,5-naphthyridin-4-yl)oxy]-3-fluorophenyl]-5-(4-fluorophenyl)-4-hydroxypyridine-3-carboxamide] | < 100 | < 100 |  | 
COc1cc2nccc(Oc3ccc(NC(=O)c4cn(C(C)C)cc(-c5ccc(F)cc5)c4=O)cc3F)c2cc1OC [Compound 43, N-[4-(6,7-Dimethoxyquinolin-4-yl)oxy-3-fluorophenyl]-5-(4-fluorophenyl)-4-oxo-1-propan-2-ylpyridine-3-carboxamide] | < 100 | < 100 |  | 
COc1cc2nccc(Oc3ccc(NC(=O)c4cn(C(C)C)cc(-c5ccc(F)cc5)c4=O)cc3F)c2nc1OC [Compound 44, N-[4-[(6,7-Dimethoxy-1,5-naphthyridin-4-yl)oxy]-3-fluorophenyl]-5-(4-fluorophenyl)-4-oxo-1-propan-2-ylpyridine-3-carboxamide] | < 100 | 100 to 300 |  | 
COc1cc2nccc(Oc3ccc(NC(=O)c4cn(C)cc(-c5ccc(F)cc5)c4=O)cc3F)c2nc1OC [Compound 45, N-[4-[(6,7-Dimethoxy-1,5-naphthyridin-4-yl)oxy]-3-fluorophenyl]-5-(4-fluorophenyl)-1-methyl-4-oxopyridine-3-carboxamide] | < 100 | < 100 |  | 
COc1cc2nccc(Oc3ccc(NC(=O)c4cn(C5CCCC5)cc(-c5ccc(F)cc5)c4=O)cc3F)c2nc1OC [Compound 46, 1-Cyclopentyl-N-[4-[(6,7-dimethoxy-1,5-naphthyridin-4-yl)oxy]-3-fluorophenyl]-5-(4-fluorophenyl)-4-oxopyridine-3-carboxamide] | < 100 | 100 to 300 |  | 
COc1cc2nccc(Oc3ccc(NC(=O)c4cn(C5COC5)cc(-c5ccc(F)cc5)c4=O)cc3F)c2nc1OC [Compound 47, N-[4-[(6,7-Dimethoxy-1,5-naphthyridin-4-yl)oxy]-3-fluorophenyl]-5-(4-fluorophenyl)-1-(oxetan-3-yl)-4-oxopyridine-3-carboxamide] | < 100 | > 300 |  | 
CNc1ncc(C(=O)Nc2ccc(Oc3ccnc4cc(OC)c(OC)nc34)c(F)c2)c(=O)n1-c1ccc(F)cc1 [Compound 99, N-[4-[(6,7-Dimethoxy-1,5-naphthyridin-4-yl)oxy]-3-fluorophenyl]-1-(4-fluorophenyl)-2-(methylamino)-6-oxopyrimidine-5-carboxamide] | < 100 | < 100 |  | 
COc1cc2nccc(Oc3ccc(NC(=O)c4c[nH]c(=S)n(-c5ccc(F)cc5)c4=O)cc3F)c2nc1OC [Compound 104, N-[4-[(6,7-Dimethoxy-1,5-naphthyridin-4-yl)oxy]-3-fluorophenyl]-3-(4-fluorophenyl)-4-oxo-2-sulfanylidene-1H-pyrimidine-5-carboxamide] | < 100 | < 100 |  | 
COc1cc2nccc(Oc3ccc(NC(=O)c4c(C)nc(C)c(-c5ccc(F)cc5)c4O)cc3F)c2nc1OC [Compound 154, N-[4-[(6,7-Dimethoxy-1,5-naphthyridin-4-yl)oxy]-3-fluorophenyl]-5-(4-fluorophenyl)-4-hydroxy-2,6-dimethylpyridine-3-carboxamide] | < 100 | < 100 | < 100 | < 100
COc1cnc2c(Oc3ccc(NC(=O)c4cn(C)c(C)c(-c5ccc(F)cc5C)c4=O)cc3)ccnc2c1 [Compound 187, 5-(4-Fluoro-2-methylphenyl)-N-[4-[(7-methoxy-1,5-naphthyridin-4-yl)oxy]phenyl]-1,6-dimethyl-4-oxopyridine-3-carboxamide] | < 100 | > 300 | < 100 | < 100
COc1cc2nccc(Oc3ccc(NC(=O)c4ccc(C)n(-c5ccc(F)cc5)c4=O)cc3F)c2nc1OC [Compound 254, N-[4-[(6,7-Dimethoxy-1,5-naphthyridin-4-yl)oxy]-3-fluorophenyl]-1-(4-fluorophenyl)-6-methyl-2-oxopyridine-3-carboxamide] | < 100 | < 100 | < 100 | < 100
COc1cc2nccc(Oc3ccc(NC(=O)c4cn(CC(F)(F)F)c(C)c(-c5ccc(F)cc5)c4=O)cc3)c2cc1OC [Compound 260, N-[4-(6,7-Dimethoxyquinolin-4-yl)oxyphenyl]-5-(4-fluorophenyl)-6-methyl-4-oxo-1-(2,2,2-trifluoroethyl)pyridine-3-carboxamide] | 100 to 300 | > 300 | < 100 | < 100
COCCOc1ccc2nccc(Oc3ccc(NC(=O)c4cnc(C)c(-c5ccc(F)cc5)c4O)cc3F)c2n1 [Compound 348, N-[3-fluoro-4-[[6-(2-methoxyethoxy)-1,5-naphthyridin-4-yl]oxy]phenyl]-5-(4-fluorophenyl)-4-hydroxy-6-methylpyridine-3-carboxamide] | < 100 | < 100 | < 100 | < 100
COCCOc1ccc2nccc(Oc3ccc(NC(=O)c4c(C)nc(C)c(-c5ccc(F)cc5)c4O)cc3F)c2n1 [Compound 349, N-[3-fluoro-4-[[6-(2-methoxyethoxy)-1,5-naphthyridin-4-yl]oxy]phenyl]-5-(4-fluorophenyl)-4-hydroxy-2,6-dimethylpyridine-3-carboxamide] | < 100 | < 100 | < 100 | < 100
COc1cc2ncnc(Oc3ccc(NC(=O)c4c5n(cc(-c6ccc(F)cc6)c4=O)CCC5)cc3F)c2cc1OC [Compound 406, N-[4-(6,7-dimethoxyquinazolin-4-yl)oxy-3-fluorophenyl]-6-(4-fluorophenyl)-7-oxo-2,3-dihydro-1H-indolizine-8-carboxamide] | < 100 | < 100 | < 100 | < 100

Source: patent publication US12371428B2 (Exelixis, Inc., priority 2019, dated 2025)
